Data published in patent US12398180B2, “Treatment of non-alcoholic fatty liver disease” (NURITAS LIMITED, priority 2019, dated 2025).
Read-outs that look alike come from different tables or passages of the source. Square brackets hold non-standard residues; d marks the D form. Peptide text beside a SMILES is read from it.

Experiments:
PK profile (half-life) = conditions: in vivo
[1] = in humans; cited from earlier work
Human primary cells = experiment: Cytotoxicity in primary human cell-based systems (SRB / alamarBlue); conditions: at the concentration tested
Method: Systems are derived from either single cell types or co-culture systems. Adherent cell types are cultured in 96 or 384-well plates until confluence, followed by the addition of PBMC (SAg and LPS systems). The BT system consists of CD19+ B cells co-cultured with PBMC and stimulated with a BCR activator and low levels of TCR stimulation. Test agents prepared in either DMSO (small molecules; final concentration s 0.1%) or PBS (biologics) are added at the indicated concentrations 1-hr before stimulation, and remain in culture for 24 h or as otherwise indicated (48 h, MyoF system; 72 h, BT system (soluble readouts); 168 h, BT system (secreted IgG)). […] Soluble factors from supernatants are quantified using either HTRF® detection, bead-based multiplex immunoassay or capture ELISA. Overt adverse effects of test agents on cell proliferation and viability (cytotoxicity) are detected by sulforhodamine B (SRB) staining, for adherent cells, and alamarBlue® reduction for cells in suspension. For proliferation assays, individual cell types are cultured at subconfluence and measured at time points optimized for each system (48 h: 3C and CASM3C systems; 72 h: BT and HDF3CGF systems; 96 h: SAg system). […]

C57BL/6 mice = experiment: Acetaminophen (APAP)-induced acute liver injury mouse model, ALT/AST; format: in vivo; conditions: inferred from ALT/AST time course
Method: Animals for Acetaminophen (APAP)-induced Acute Liver Injury Mouse Model: All animal procedures were performed by Melior Discovery (Exton, PA, USA) in accordance with Institutional Animal Care and Use (IACUC) guidelines in an AAALAC-accredited facility. […] Studies were performed with 8-week-old male C57BL/6 mice obtained from the Charles River Laboratory and were randomly assigned to the treatment groups based on body mass. Mice were acclimated for 7 days and housed 4 per cage on a 12-hour light/dark cycle with ad libitum access to standard rodent chow and water.

lipoproteins = conditions: binding to lipoproteins; cited from earlier work
[2] = system: primary human hepatic stellate cells; experiment: Anti-fibrotic effect in TGF-β stimulated primary hepatic stellate cells (ACTA2 staining); format: cell-based; conditions: 10 μM
Method: The procedure was performed as described above for the CY5 labelled peptide imaging in HSkMCs with a few minor modifications. Primary hepatic stellate cells were investigated as they are considered to be the most relevant profibrogenic cells operating in acute and chronic liver diseases. The stellate cells were seeded directly onto the glass coverslips at a density of 5,000 cells/mL. After starvation, the cells were treated with pep_1E99R5 (5 ng/mL) or Elafibranor (10 μM) for 6 hours. The cells were washed and subsequently treated with 5 ng/ml […] (Bio Techne, Minneapolis, MN, United States) for 24 hours to induce fibrosis. The cells were fixed and stained with ACTA2 antibody (Assay Genie, Dublin, Ireland), a marker of fibroblast activation.
The confocal images were analysed with custom Python scripts using the scikit-image library version 0.15. The cells and nuclei were segmented using a simple threshold computed using the mean value of the image. Using the Nuclei as a seed we separated the cells in the cell mask using watershed segmentation. Cell size was then quantified in pixels. [Stéfan van der Walt, Johannes L. Schönberger, Juan Nunez-Iglesias, Frangois Boulogne, Joshua D. Warner, Neil Yager, Emmanuelle Gouillart, Tony Yu and the scikit-image contributors. scikit-image: Image processing in Python. PeerJ 2:e453 (2014)

[3] = system: human skeletal muscle cells; experiment: Glucose uptake in skeletal muscle cells; format: cell-based; conditions: compared with control (FIG. 5)

## CC(C)C[C@H](NC(=O)[C@@H]1CCCN1C(=O)[C@H](CCCCN)NC(=O)CNC(=O)[C@@H](C)NC(=O)[C@H](CCC(=O)O)NC(=O)[C@H](CC(=O)O)NC(=O)[C@@H](CCCCN)NC(=O)[C@H](N)Cc1c[nH]c2ccccc12)C(=O)N[C@@H](C(=O)N[C@H](CCCCN)C(=O)O)C(C)C [SEQ ID 2, {d}W{d}KDE{d}AGKPL{d}V{d}K] (H-[dW][dK]DE[dA]GKPL[dV][dK]-OH; N-terminus and C-terminus assumed)
PK profile (half-life)
  half-life: 1.55 h

## NC(=O)CC[C@@H]1NC(=O)[C@H](Cc2ccccc2)NC(=O)[C@H](Cc2ccc(O)cc2)NC(=O)[C@@H](N)CSSC[C@@H](C(=O)N2CCC[C@H]2C(=O)N[C@@H](CCCN=C(N)N)C(=O)NCC(N)=O)NC(=O)[C@H](CC(N)=O)NC1=O [vasopressin]
[1]
  half-life: 0.167 to 0.583 h

## CC(C)C[C@H](NC(=O)[C@@H]1CCCN1C(=O)[C@H](CCCCN)NC(=O)CNC(=O)[C@H](C)NC(=O)[C@H](CCC(=O)O)NC(=O)[C@H](CC(=O)O)NC(=O)[C@H](CCCCN)NC(=O)[C@@H](N)Cc1c[nH]c2ccccc12)C(=O)N[C@H](C(=O)N[C@@H](CCCCN)C(=O)O)C(C)C [pep_260] (H-WKDEAGKPLVK-OH; N-terminus and C-terminus assumed)
Human primary cells
  cytotoxicity: not cytotoxic
C57BL/6 mice
  duration of potent functionality in mice: 2 h

## C[C@@H](O)[C@@H]1NC(=O)[C@H](CCCCN)NC(=O)[C@@H](Cc2c[nH]c3ccccc23)NC(=O)[C@H](Cc2ccccc2)NC(=O)[C@@H](NC(=O)[C@H](N)Cc2ccccc2)CSSC[C@@H](C(=O)N[C@H](CO)[C@@H](C)O)NC1=O [octreotide]
[1]
  half-life: about 100 min
lipoproteins
  fraction unbound: 0.65

## CSc1ccc(C(=O)/C=C/c2cc(C)c(OC(C)(C)C(=O)O)c(C)c2)cc1 [Elafibranor]
[2]
  anti-fibrotic effect in stimulated stellate cells: anti-fibrotic effects

## 1(clac)wKE(Me)EC1GK(Me)PLVk-OH (Ac-[dW]KEXCGKXLV[dK]-OH; thioether (positions not given here); not fully specified (residues 4, 8, bridges); printed as 1(clac)wKE(Me)EC1GK(Me)PLVk-OH) [SEQUENCE ID NO: 3]
[3]
  glucose uptake in human skeletal muscle cells in-vitro: significantly increases
Stability in-vivo
  stability in-vivo: enhanced stability
